Measured values from patent US20100047227A1, “NOVEL ANTICANCER CATHEPSIN FORMULATIONS AND ANTICANCER AGENT FOR USE IN COMBINED ANTICANCER THERAPY” (priority 2006, published 2010).

Assays:
Assay type in all cases: cell-based, human
soluble TRAIL trimers = assay: immunoblot densitometry of soluble TRAIL trimer in culture supernatant; details: PrE and prostate cancer cell lines treated with cathepsin E
Procedure: The SDS-PAGE and immunoblot analyses were carried out according to prior art literature (Reference #63). The protein fractioned by SDS-PAGE was migrated on nitrocellulose membrane and was blocked with 5% non-fat dried milk. Then, the nitrocellulose membrane was incubated overnight at 4° C. with a primary antibody, i.e., anti-TRAIL antibody (1/300-fold dilution), anti-TNF-α antibody (1/200-fold dilution), anti-FasL antibody (1/500-fold dilution), anti-DR4 antibody (1/500-fold dilution), anti-DR5 antibody (1/100-fold dilution), anti-DcR1 antibody (1/500-fold dilution), anti-DcR2 antibody (1/500-fold dilution), anti-osteoprotegrin (1/150-fold dilution) or anti-β-actin antibody (1/500-fold dilution). […] The resulting membrane was then washed several times and an immunocomplex was detected with a chemiluminescent reagent. The measurement for density was measured with LAS 1000 analyzer.
In this assay, the cells to be tested were incubated to a ˜80% confluent state and then together with cathepsin E (100 μg/ml) or physiological saline at 37° C. and pH 7.4 for 20 hours, followed by measurements for the cell survival rate by a colorimetric assay. […] As an alternative method, a culture medium of each cell line was immunoblot-analyzed using an anti-OPG antibody. […] Thereafter, the immunoblot was analyzed for its concentration in order to determine a quantity of a soluble TRAIL trimer. […]

FasL = assay: ELISA of FasL in culture supernatant of ALVA-41 cells; details: ALVA-41 cells treated with cathepsin E 100 μg/ml, 20 hours
Procedure: (§1) ALVA-41 cells (1×10^6 cells per a 6-cm dish) were incubated together with cathepsin E (100 μg/ml) in a non-serum culture medium Opti-MEM at 37° C. for 20 hours. The resulting culture supernatant was measured for amounts of TRAIL, FasL and TNF-α with ELSA kit in a manner as will be described briefly. A sample and a standard product (each 100 μl) were added to a microtiter plate immobilized with a monoclonal antibody to the corresponding member of the TNF family and incubated at room temperature for 2 hours. Then, the wells of the microtiter plate were washed four times with a washing buffer and 100 μl of biotin-conjugated monoclonal antibody was added to each wells of the plate, following by incubation at room temperature for 1 hour and washing the wells of the plate completely. Then, they were incubated together with 100 μl of streptoavidin-conjugated horseradish peroxidase at room temperature for 30 minutes and washed four times with a washing buffer. […] After an addition of a reaction terminating solution, the wells were measured at 450 nm with microreader.
(§2) In this experiment, the ALVA-41 cells were treated with cathepsin E (100 μg/ml) or physiological saline at 37° C. and pH 7.4 for 20 hours and measured for the amounts of TNF-α, FasL and TRAIL in the culture supernatant by ELSA. […] Apoptosis of the ALVA-41 cells was measured using the culture supernatant after immunoprecipitation. […]

TRAIL = assay: ELISA of TRAIL in culture supernatant of ALVA-41 cells; details: ALVA-41 cells treated with cathepsin E 100 μg/ml, 20 hours
Procedure: as §1, §2

cathepsin E
order of increasing amounts of soluble TRAIL trimers secreted by treatment (soluble TRAIL trimers): PrE<PC-3<PPC-1<ALVA-101≦DU145<ALVA-41 | FasL in culture supernatant (FasL): little detected | TRAIL in culture supernatant (TRAIL): apparently secreted
